{"source": "ChEMBL document CHEMBL3885861", "about": "“Open TG-GATES”", "species": "Rattus norvegicus", "assay": "Open TG-GATES - Regimen: Single", "type": "toxicity, organism-based, Sprague-Dawley", "set-up": "regimen Single, gender Male, age 6 weeks", "details": "in vivo, po, 10 mg/kg, route gavage, dose level Low; for KIDNEY_L / KIDNEY_R / KIDNEY_TOTAL: tissue Kidney; for LIVER: tissue Liver; for A/G / ALP / ALT / AST / BUN / CRE / Ca / Cl / DBIL / GLC / IP / K / LDH / Na / PL / RALB / TBIL / TC / TG / TP / gamma-GTP: tissue Plasma", "data": [{"smiles": "O=C1CN(/N=C/c2ccc([N+](=O)[O-])o2)C(=O)N1", "note": "[NITROFURANTOIN]", "values": [{"measurement": "RBC", "setting": "6 h, tissue Blood", "value": 629.8, "unit": "x10_4/ul"}, {"measurement": "Ret", "setting": "6 h, tissue Blood", "value": 7.6, "unit": "%"}, {"measurement": "WBC", "setting": "6 h, tissue Blood", "value": 96.2, "unit": "x10_2/uL"}, {"measurement": "KIDNEY_L", "setting": "6 h", "value": 1, "unit": "g"}, {"measurement": "KIDNEY_R", "setting": "6 h", "value": 1, "unit": "g"}, {"measurement": "KIDNEY_TOTAL", "setting": "6 h", "value": 2, "unit": "g"}, {"measurement": "LIVER", "setting": "6 h", "value": 9.9, "unit": "g"}, {"measurement": "A/G", "setting": "6 h", "value": 1.7}, {"measurement": "ALP", "setting": "6 h", "value": 930.6, "unit": "IU/L"}, {"measurement": "ALT", "setting": "6 h", "value": 32, "unit": "IU/L"}, {"measurement": "AST", "setting": "6 h", "value": 61, "unit": "IU/L"}, {"measurement": "BUN", "setting": "6 h", "value": 11.4, "unit": "mg/dL"}, {"measurement": "CRE", "setting": "6 h", "value": 0.4, "unit": "mg/dL"}, {"measurement": "Ca", "setting": "6 h", "value": 10.7, "unit": "mg/dL"}, {"measurement": "Cl", "setting": "6 h", "value": 102.8, "unit": "meq/L"}, {"measurement": "DBIL", "setting": "6 h", "value": 0.088, "unit": "mg/dL"}, {"measurement": "GLC", "setting": "6 h", "value": 194.2, "unit": "mg/dL"}, {"measurement": "IP", "setting": "6 h", "value": 8.8, "unit": "mg/dL"}, {"measurement": "K", "setting": "6 h", "value": 4.2, "unit": "meq/L"}, {"measurement": "LDH", "setting": "6 h", "value": 175.8, "unit": "IU/L"}, {"measurement": "Na", "setting": "6 h", "value": 140.6, "unit": "meq/L"}, {"measurement": "PL", "setting": "6 h", "value": 140.8, "unit": "mg/dL"}, {"measurement": "RALB", "setting": "6 h", "value": 3.5, "unit": "g/dL"}, {"measurement": "TBIL", "setting": "6 h", "value": 0.1, "unit": "mg/dL"}, {"measurement": "TC", "setting": "6 h", "value": 75, "unit": "mg/dL"}, {"measurement": "TG", "setting": "6 h", "value": 77.6, "unit": "mg/dL"}, {"measurement": "TP", "setting": "6 h", "value": 5.5, "unit": "g/dL"}, {"measurement": "gamma-GTP", "setting": "6 h", "value": 0.6, "unit": "IU/L"}, {"measurement": "TERMINAL_BW", "setting": "9 h", "value": 215.9, "unit": "g"}, {"measurement": "APTT", "setting": "9 h, tissue Blood", "value": 18.5, "unit": "s"}, {"measurement": "Bas", "setting": "9 h, tissue Blood", "value": 0, "unit": "%"}, {"measurement": "Eos", "setting": "9 h, tissue Blood", "value": 1, "unit": "%"}, {"measurement": "Fbg", "setting": "9 h, tissue Blood", "value": 226.2, "unit": "mg/dL"}, {"measurement": "Hb", "setting": "9 h, tissue Blood", "value": 13.3, "unit": "g/dL"}, {"measurement": "Ht", "setting": "9 h, tissue Blood", "value": 37.5, "unit": "%"}, {"measurement": "Lym", "setting": "9 h, tissue Blood", "value": 79.6, "unit": "%"}, {"measurement": "MCH", "setting": "9 h, tissue Blood", "value": 21.9, "unit": "pg"}, {"measurement": "MCHC", "setting": "9 h, tissue Blood", "value": 35.5, "unit": "%"}, {"measurement": "MCV", "setting": "9 h, tissue Blood", "value": 61.8, "unit": "fL"}, {"measurement": "Mono", "setting": "9 h, tissue Blood", "value": 2.6, "unit": "%"}, {"measurement": "Neu", "setting": "9 h, tissue Blood", "value": 15.8, "unit": "%"}, {"measurement": "PT", "setting": "9 h, tissue Blood", "value": 12.7, "unit": "s"}, {"measurement": "Plat", "setting": "9 h, tissue Blood", "value": 112.8, "unit": "x10_4/uL"}, {"measurement": "RBC", "setting": "9 h, tissue Blood", "value": 607, "unit": "x10_4/ul"}, {"measurement": "Ret", "setting": "9 h, tissue Blood", "value": 7.3, "unit": "%"}, {"measurement": "WBC", "setting": "9 h, tissue Blood", "value": 86.5, "unit": "x10_2/uL"}, {"measurement": "KIDNEY_L", "setting": "9 h", "value": 1, "unit": "g"}, {"measurement": "KIDNEY_R", "setting": "9 h", "value": 1, "unit": "g"}, {"measurement": "KIDNEY_TOTAL", "setting": "9 h", "value": 2, "unit": "g"}, {"measurement": "LIVER", "setting": "9 h", "value": 9.4, "unit": "g"}, {"measurement": "A/G", "setting": "9 h", "value": 1.6}, {"measurement": "ALP", "setting": "9 h", "value": 712.8, "unit": "IU/L"}, {"measurement": "ALT", "setting": "9 h", "value": 32.2, "unit": "IU/L"}, {"measurement": "AST", "setting": "9 h", "value": 56.2, "unit": "IU/L"}, {"measurement": "BUN", "setting": "9 h", "value": 10.2, "unit": "mg/dL"}, {"measurement": "CRE", "setting": "9 h", "value": 0.3, "unit": "mg/dL"}, {"measurement": "Ca", "setting": "9 h", "value": 10.4, "unit": "mg/dL"}, {"measurement": "Cl", "setting": "9 h", "value": 103, "unit": "meq/L"}, {"measurement": "DBIL", "setting": "9 h", "value": 0.068, "unit": "mg/dL"}, {"measurement": "GLC", "setting": "9 h", "value": 197.2, "unit": "mg/dL"}, {"measurement": "IP", "setting": "9 h", "value": 9.4, "unit": "mg/dL"}, {"measurement": "K", "setting": "9 h", "value": 3.8, "unit": "meq/L"}, {"measurement": "LDH", "setting": "9 h", "value": 205.2, "unit": "IU/L"}, {"measurement": "Na", "setting": "9 h", "value": 140.6, "unit": "meq/L"}, {"measurement": "PL", "setting": "9 h", "value": 140, "unit": "mg/dL"}, {"measurement": "RALB", "setting": "9 h", "value": 3.4, "unit": "g/dL"}, {"measurement": "TBIL", "setting": "9 h", "value": 0.1, "unit": "mg/dL"}, {"measurement": "TC", "setting": "9 h", "value": 79.8, "unit": "mg/dL"}, {"measurement": "TG", "setting": "9 h", "value": 51.2, "unit": "mg/dL"}, {"measurement": "TP", "setting": "9 h", "value": 5.5, "unit": "g/dL"}, {"measurement": "gamma-GTP", "setting": "9 h", "value": 0.6, "unit": "IU/L"}, {"measurement": "TERMINAL_BW", "setting": "24 h", "value": 233.4, "unit": "g"}, {"measurement": "APTT", "setting": "24 h, tissue Blood", "value": 18.6, "unit": "s"}, {"measurement": "Bas", "setting": "24 h, tissue Blood", "value": 0, "unit": "%"}]}]}
